Source: PubChem BioAssay (NCI)
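Five concentrations, 48 hours, 96-well plates. TGI denotes the concentration required for complete inhibition of growth.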

Experiments:
Test in all cases: inhibition of tumour cell growth, NCI panel, 48 h
OVCAR-8 ovarian = tested on: OVCAR-8 ovarian
SN12C renal = tested on: SN12C renal
HL-60(TB) leukemia = tested on: HL-60(TB) leukemia
OVCAR-5 ovarian = tested on: OVCAR-5 ovarian
NCI-H226 lung = tested on: NCI-H226 lung
UACC-62 melanoma = tested on: UACC-62 melanoma
MCF7 breast = tested on: MCF7 breast
IGROV1 ovarian = tested on: IGROV1 ovarian
SNB-19 CNS = tested on: SNB-19 CNS
HOP-92 NSCLC = tested on: HOP-92 NSCLC
EKVX NSCLC = tested on: EKVX NSCLC
HT29 colon = tested on: HT29 colon
SF-539 CNS = tested on: SF-539 CNS
M14 melanoma = tested on: M14 melanoma
MDA-MB-435 = tested on: MDA-MB-435
K-562 leukemia = tested on: K-562 leukemia
RPMI-8226 leukemia = tested on: RPMI-8226 leukemia
SK-MEL-5 melanoma = tested on: SK-MEL-5 melanoma
A498 renal = tested on: A498 renal

Structure (SMILES)	TGI (OVCAR-8 ovarian) [µM]	TGI (SN12C renal) [µM]	TGI (HL-60(TB) leukemia) [µM]	TGI (OVCAR-5 ovarian) [µM]	TGI (NCI-H226 lung) [µM]	TGI (UACC-62 melanoma) [µM]	TGI (MCF7 breast) [µM]	TGI (IGROV1 ovarian) [µM]	TGI (SNB-19 CNS) [µM]	TGI (HOP-92 NSCLC) [µM]	TGI (EKVX NSCLC) [µM]	TGI (HT29 colon) [µM]	TGI (SF-539 CNS) [µM]	TGI (M14 melanoma) [µM]	TGI (MDA-MB-435) [µM]	TGI (K-562 leukemia) [µM]	TGI (RPMI-8226 leukemia) [µM]	TGI (SK-MEL-5 melanoma) [µM]	TGI (A498 renal) [µM]
COC(=O)C1=C(C)C(=O)[C@]23C(CCCC[C@H]12)C(=O)[C@H](C(=O)OC)C3C (some centres undefined)	> 100	> 100	> 100	> 100	> 100	> 100	> 100	> 100	> 100	> 100	> 100	> 100	> 100	> 100	> 100	> 100			
O=C1N=C(SC(SC2=NC(=O)C3(NN2)c2ccccc2-c2ccccc23)=C(SC2=NC(=O)C3(NN2)c2ccccc2-c2ccccc23)SC2=NC(=O)C3(NN2)c2ccccc2-c2ccccc23)NNC12c1ccccc1-c1ccccc12	> 10	> 10			> 10	> 10	> 10	> 10	> 10	> 10	> 10	> 10	> 10	> 10	> 10	> 10	> 10	> 10	
CCCCCC(C/C=N/N(C)C)C(O)(C(F)(F)F)C(F)(F)F (centres undefined)	> 100	> 100	31.6	> 100	> 100	> 100		74.5	> 100	78.2	> 100	> 100	82.7	> 100	> 100	> 100	60.4	30.7	56
N#C[C@@H](c1nc2ccccc2s1)c1ncccc1[N+](=O)[O-]	20.6	> 31.6		> 31.6	87.8	> 31.6	17.3		17.4	6.85	> 31.6			> 31.6	> 100			37.3	> 31.6
Fc1ccc(Oc2nc3ccc(C(F)(F)F)cc3nc2-c2ccccc2)cc1	> 100	> 100	> 100	> 100		> 100	> 100	> 100	> 100		> 100	> 100	> 100	> 100	> 100	> 10		> 100	
O=S1(=O)OCCOS(=O)(=O)C1S(=O)(=O)c1ccc2ccccc2c1	> 100	> 100	> 100	> 100			> 100	> 100	> 100	> 100	> 100	> 100		> 100	> 100	> 100	> 100	> 100	
CC(C)Oc1c(O)c2c3c(oc(=O)n3C=CC2c2ccccc2)c1OC(C)C (centres undefined)	> 100	> 100	91.4	> 100	> 100		> 100	83.1	> 100	> 100	74	77.4	43.1	41.4				> 100	
O=c1[nH]nc(-c2ccccc2)n1Nc1ccccc1	> 100	> 100	> 100	> 100	> 100	> 100		> 100	> 100	> 100	> 100	> 100	> 100	> 100	> 100	> 100	> 100	> 100	> 100
CN1CCN(C(=S)N(C(=O)c2ccc(Cl)cc2)c2ccccc2)CC1	> 100	> 100	> 100	> 100	> 100	> 100	> 100	> 100	> 100	> 100		> 100		> 100	> 100	> 100	> 100	> 100	
CCN(C(=O)N[C@@H](Cc1ccccc1)C(=O)N[C@@H](CC(C)C)C(=O)OC)c1ccccc1	36.7	43.8		66.6	47.6	36.1	62	42.2	> 100	59.5	58.8	27.3	36.1	21.9	> 100	> 100	56.9		
CC(Cc1ccccc1)Nc1ncnc2c1ncn2C1OC(CO)CC1O (centres undefined)	> 100	> 100		> 100	> 100	> 100	> 100	> 100	> 100	> 100	> 100	> 100		> 100	> 100	> 100	> 100	> 100	> 100
O=c1c2ccccc2nc(-c2cc3c(cc2Cl)Sc2nccn2S3(=O)=O)n1-c1ccccc1	44	> 100	15.5	> 100	> 100	71.7	27.5	> 100	> 100	58.5	48	> 100	40.5	> 100	71.1	> 100	48.5	> 100	
CCOC(=O)c1nnsc1NC(=O)Nc1ccc(Cc2ccc(NC(=O)Nc3snnc3C(=O)OCC)cc2)cc1	76.6	> 100		> 100	> 100	> 100	> 100	> 100	> 100		> 100	> 100		> 100	> 100	> 100	> 100	93	
CN1CN(c2ccccc2)C2(CCN(Cc3csc4ccccc34)CC2)C1=O	72.6	30.6	32.8	25.1	> 100	> 100	37.3	44.7	> 100		41.8	36.5	48.3	39.8	28.7	> 100	7.5	22.4	
